Series [1] can be described thus: (§1) Protective activity against Daboia russellii venom-induced mortality in Swiss albino mouse at 100 mmol, iv by measuring venom LD50 administered immediately after venom injection measured after 24 hrs (reference value: 2.28ug). The class given is functional, Daboia russelii.
A short description of series [2]: Protective activity against Naja kaouthia venom-induced mortality in Swiss albino mouse at 100 mmol, iv by measuring venom LD50 preincubated with venom for 1 hr followed by administration to mouse measured after 24 hrs (reference value: 2.82 ug). In kind it is functional.
Series [3] is described as follows: Protective activity against Naja kaouthia venom-induced mortality in Swiss albino mouse at 100 mmol, iv preincubated with venom for 1 hr followed by administration to mouse measured after 24 hrs relative to untreated control. The class given is functional.
Series [4] is described as follows: Protective activity against Daboia russellii venom-induced hemorrhage in Swiss albino mouse at 100 mmol, iv assessed as hemorhagic lesion administered immediately after venom injection measured after 24 hrs relative to untreated control. The class given is functional, Daboia russelii.
Series [5] in a line: Lipophilicity, log P of compound. The class given is physicochemical. Particulars: octanol/water; read-out: logP.
Series [6] can be described thus: Protective activity against Daboia russellii venom-induced mortality in Swiss albino mouse at 100 mmol, iv preincubated with venom for 1 hr followed by administration to mouse measured after 24 hrs relative to untreated control. The class given is functional, Daboia russelii.
Series [7] can be described thus: Protective activity against Daboia russellii venom-induced mortality in Swiss albino mouse at 100 mmol, iv administered immediately after venom injection measured after 24 hrs relative to untreated control. In kind it is functional, Daboia russelii.
The nature of series [8]: Protective activity against Daboia russellii venom-induced hemorrhage in intradermally dosed Swiss albino mouse at 100 mmol assessed as hemorhagic lesion preincubated with venom for 1 hr followed by administration to mouse measured after 24 hrs relative to untreated control. The class given is functional, Daboia russelii.
Series [9] is described as follows: Protective activity against Daboia russellii venom-induced hemorrhage in Swiss albino mouse at 100 mmol, iv assessed as hemorhagic lesion by measuring […] administered immediately after venom injection measured after 24 hrs (Rvb =5 ug). In kind it is functional, Daboia russelii.
Series [10] concerns Naja kaouthia.
Description: Protective activity against Naja kaouthia venom-induced mortality in Swiss albino mouse at 100 mmol, iv by measuring venom LD50 administered immediately after venom injection measured after 24 hrs (Rvb = 2.82 ug)
Series [11] is described as follows: Protective activity against Daboia russellii venom-induced mortality by measuring venom LD50 in Swiss albino mouse at 100 mmol, iv preincubated with venom for 1 hr followed by administration to mouse measured after 24 hrs (reference value: 2.28 ug). The class given is functional, Daboia russelii.
Series [12] is described as follows: Protective activity against Daboia russellii venom-induced hemorrhage in intradermally dosed Swiss albino mouse at 100 mmol assessed as hemorhagic lesion by measuring minimal […] dose preincubated with venom for 1 hr followed by administration to mouse measured after 24 hrs (reference value: 5 ug). The class given is functional, Daboia russelii.
For series [13], the system named is Daboia russelii. Described as §1. In kind it is functional.
Series [14] concerns Daboia russelii.
For series [15], the system named is Naja kaouthia. This is another data set of the same source.

The record followed here is ChEMBL document CHEMBL3785074, “Molecular modeling and snake venom phospholipase A2 inhibition by phenolic compounds: Structure-activity relationship” (Eur J Med Chem, 2016).

Activity calls are given as the source filed them. No cut-off for these calls is given here.

Take `O=Cc1ccc(O)c(O)c1` [PROTOCATECHUALDEHYDE]: the figures for the LD50 in [1], in series [2] and in series [11] were 50 µg, 3 µg and 6 µg, respectively. For the same molecule, the “fold change (FC)” value in series [3] is recorded as 1; in [4], 4; in [6] it was 2.6; in series [7], 1.25; in series [8] it was 12. Further, the logP in [5] was 2. The MHC was 20 µg in series [9] and 60 µg in [12]. In addition, the LD50 result in the series on Naja kaouthia [10] is “inactive”.
Turning to `COc1cccc(C=O)c1`, the results for the LD50 in series [1], in series [2] and in [11] were 100 µg, 9 µg and 25 µg, respectively. Besides, the “fold change (FC)” value in series [3] stood at 3.2; in [4] it was 1; in [6] it was 11.2; in series [7] it was 2.5; in series [8], 3. The logP in series [5] amounted to 1.15. Also, the MHC in [9] turned out to be 5 µg; in [12], 15 µg. Also, the LD50 entry with Naja kaouthia [10] is “inactive”.
`O=Cc1cccc(O)c1` [3-HYDROXYBENZALDEHYDE]: the “fold change (FC)” value came out at 1 in [3]; 3 in series [4]; 2.6 in series [6]; 1.25 in series [7]; 6 in series [8]. Also, the MHC in [9] came to 15 µg; in [12] it was 30 µg.
Regarding `O=Cc1cc(O)ccc1O`, the LD50 stood at 50 µg in series [1], 3 µg in series [2] and 5 µg in series [11]. For the same molecule, the “fold change (FC)” value is 1 in series [3]; 3 in series [4]; 2.1 in [6]; 1.25 in series [7]; 7 in [8]. For the same molecule, the logP in series [5] was 1.53. Further, the MHC came to 15 µg in series [9] and 35 µg in series [12]. Also, in the series with Naja kaouthia [10], the LD50 entry is “inactive”.
In the case of `O=Cc1ccc(O)cc1` [4-HYDROXYBENZALDEHYDE], the results for the LD50 in series [1], in series [2] and in series [11] were 50 µg, 3 µg and 6 µg, respectively. Besides, the “fold change (FC)” value turned out to be 1 in [3]; 2 in series [4]; 2.6 in series [6]; 1.25 in series [7]; 3 in [8]. Further, in series [5], the logP turned out to be 1.15. Moreover, the figures for the MHC in series [9] and in series [12] were 10 µg and 15 µg, respectively. The LD50 entry with Naja kaouthia [10] is “inactive”.
On to `O=Cc1cccc(O)c1O`, for which the LD50 result in the series on Daboia russelii [13] and with Naja kaouthia [10] was “inactive” in each case. Moreover, the LD50 in [2] was found to be 3 µg; in series [11], 5 µg. For the same molecule, the “fold change (FC)” value came to 1 in [3], 2 in series [4], 2.1 in series [6] and 8 in [8]. Further, the logP in series [5] is 1.19. Also, the MHC in series [9] is 10 µg; in series [12], 40 µg.
For `COc1ccc(C=O)cc1O` [ISOVANILLIN], the LD50 entry in the series with Daboia russelii [13], in the series with Daboia russelii [14], with Naja kaouthia [15] and with Naja kaouthia [10] was “inactive” each time. For the same molecule, the “fold change (FC)” value in [4] and in [8] was 2 throughout. Moreover, the MHC in series [9] and in series [12] was 10 µg throughout.
`COc1ccccc1C=O` [2-METHOXYBENZALDEHYDE]: the LD50 stood at 100 µg in series [1], 6 µg in series [2] and 18 µg in series [11]. Also, the “fold change (FC)” value in [3] stood at 2.1; in [4], 1; in [6] it was 8; in series [7], 2.5; in [8], 2. Further, the logP in [5] was determined as 1.15. Further, the MHC in series [9] came to 5 µg; in series [12], 10 µg. Further, the LD50 result in the series on Naja kaouthia [10] is “inactive”.

As a reminder, the logP is a log measure of how a compound divides between an organic and an aqueous phase.
